# Laboratory results reported in patent US5716958A, “Amino acid derivative having anti-CCK activity” (Tobishi Pharmaceutical Co., Ltd., priority 1994, dated 1998).
# Like-named read-outs stand apart in the source and are kept apart here.
# Assays:
# [1] = tested on: extracted guinea pig ileum; assay: Anti-CCK action in extracted guinea pig ileum (inhibition of CCK-8-induced contraction, Magnus tube); set-up: species or system guinea pig (Hartley strain, male); settings: Cavia porcellus; contraction by 1×10^-8 M CCK-8, test compound added 5 minutes before; extracted ileum, 37° C; read-out: Active IC50
# Procedure: Anti-cholecystokinin (CCK) Action in Extracted Guinea Pig Ileum After sacrificing a male guinea pig (Hartley strain) by striking and exsanguination, a piece of extracted ileum was suspended from a Magnus tube, while applying tension of 0.5 g, containing 30 ml of Tyrode's solution (NaCl 136.9 mM, KCl 2.68 mM, CaCl2 1.8 mM, MgCl2 1.05 mM, NaH2 PO4 0.42 mM, NaHCO3 11.9 mM and glucose 5.55 mM) and ventilated with mixed O2 gas containing 5% CO2 at 37° C. Changes in contraction were recorded on smoked paper for isotonicity via a bevel. The piece of ileum was allowed to stand undisturbed for 30 minutes and then contracted by addition 1×10^-8 M CCK-8. After washing, this was repeated several times. After the contraction by CCK-8 had stabilized, the test compound was added. Contraction resulting from addition of 1×10^-8 M CCK was then measured 5 minutes later. The contraction caused by CCK-8 and the contraction caused by CCK-8 in the presence of the test compound at varying concentrations were compared, and the resulting IC50 values (concentration of test substance at which contraction caused by CCK-8 is inhibited by 50%) are shown in Table 2. The compound numbers shown in Table 2 indicate the target compounds according to the numbers of the embodiments.
# CCK-A = target: T1, CCK-A (Rattus norvegicus, UniProt P30551); assay: Peripheral receptor (CCK-A) binding experiment, [^3 H]-CCK-8 binding inhibition; settings: for CCK-B/CCK-A: ratio of IC50 values CCK-B/CCK-A (selectivity for CCK-A), 60 min
# T1 construct: CCK-A receptors prepared from the cell membranes of rat pancreas; from tissue; host or cells: rat pancreas membranes (male rats, Japan Laboratory Animals)
# T1 sequence (P30551 1-444): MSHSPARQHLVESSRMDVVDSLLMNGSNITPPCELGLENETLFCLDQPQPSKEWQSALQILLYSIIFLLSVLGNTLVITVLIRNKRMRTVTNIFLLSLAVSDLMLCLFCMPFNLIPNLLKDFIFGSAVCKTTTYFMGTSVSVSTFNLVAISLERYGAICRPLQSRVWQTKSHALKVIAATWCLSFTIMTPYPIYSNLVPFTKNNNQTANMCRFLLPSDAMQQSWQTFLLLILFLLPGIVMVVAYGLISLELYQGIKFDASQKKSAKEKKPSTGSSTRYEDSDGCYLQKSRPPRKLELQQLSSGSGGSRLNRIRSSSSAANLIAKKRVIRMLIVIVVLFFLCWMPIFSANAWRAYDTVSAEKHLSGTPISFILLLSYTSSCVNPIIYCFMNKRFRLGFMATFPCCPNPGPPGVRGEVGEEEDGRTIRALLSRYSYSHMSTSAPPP
# Procedure: (§1) Peripheral Receptor (CCK-A) and Central Receptor (CCK-B) Binding Experiment
# (§2) The pancreas and cerebrum of male rats (Japan Laboratory Animals), which were sacrificed by decapitation and having body weights of 250-300 g, were extracted and immersed in cold Hepes buffer. After suspending these tissues using a Potter homogenizer, the suspension was centrifuged for 10 minutes at 48,000×g. The resulting residue was again suspended by addition of cold Hepes buffer and centrifuged for 10 minutes at 48,000×g. The resulting residue was transferred to cold incubation buffer.
# (§3) A 1 ml aliquot of the homogenate was incubated for 60 minutes at 25° C. in the presence of 0.2 nM [^3 H]-CCK-8 and the test compound, in the presence of vehicle only (for measurement of 100% binding), or in the presence of 1 μM cold CCK-8 (for measurement of non-specific binding). Next, the reaction solution was promptly suction filtered using a Whatman glass GF/B filter immersed in Hepes buffer followed by washing the filter with cold Hepes buffer. Next, the glass filter was placed in Aquasol-2 followed by assay of radioactivity with a liquid scintillation counter.
# (§4) The compound numbers shown in Table 3 indicate the target compounds according to the number of the embodiment.
# CCK-B = target: T2, CCK-B (Rattus norvegicus, UniProt P30553); assay: Central receptor (CCK-B) binding experiment, [^3 H]-CCK-8 binding inhibition; settings: rat cerebrum homogenate, 0.2 nM [^3 H]-CCK-8, 60 minutes at 25° C
# T2 construct: CCK-B receptors originating in the cell membrane of rat brain cells; from tissue; host or cells: rat cerebrum membranes (male rats, Japan Laboratory Animals)
# T2 sequence (P30553 1-452): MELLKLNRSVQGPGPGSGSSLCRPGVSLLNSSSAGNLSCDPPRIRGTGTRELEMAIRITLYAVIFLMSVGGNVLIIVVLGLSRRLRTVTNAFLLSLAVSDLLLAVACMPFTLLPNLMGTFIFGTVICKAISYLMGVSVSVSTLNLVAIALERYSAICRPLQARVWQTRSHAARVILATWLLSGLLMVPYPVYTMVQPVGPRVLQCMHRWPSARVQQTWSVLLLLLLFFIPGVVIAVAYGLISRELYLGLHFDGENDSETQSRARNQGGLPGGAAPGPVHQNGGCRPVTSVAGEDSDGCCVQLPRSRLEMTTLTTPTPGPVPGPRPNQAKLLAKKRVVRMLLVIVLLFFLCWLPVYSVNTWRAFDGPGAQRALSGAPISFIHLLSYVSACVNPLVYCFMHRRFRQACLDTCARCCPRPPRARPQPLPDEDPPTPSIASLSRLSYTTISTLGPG
# Procedure: as §1, §2, §3, §4
# [2] = rat pancreas homogenate, 0.2 nM [^3 H]-CCK-8, 60 minutes at 25° C, read-out: CCK-A IC50
# [3] = rat pancreas cell membranes, read-out: activity in binding experiment on CCK-A receptors prepared from the cell membranes of rat pancreas
SMILES,IC50 [1] [µM],IC50 (CCK-A; [2]) [µM],CCK-B/CCK-A (CCK-A),IC50 (CCK-B) [µM],IC50 (CCK-A; [3]) [µM]
"CCCCCN(CCCOC)C(=O)C(CCC(=O)O)NC(=O)c1ccc(Cl)c(Cl)c1 (stereo not drawn) [CR1505, Loxiglumide, reference compound]",3.3,1.5,16,24,–
"O=C(N[C@@H](CSc1ncccc1C(=O)O)C(=O)N1CCN(C(c2ccccc2)c2ccccc2)CC1)c1cc2ccccc2[nH]1 [Compound 1-6, (R)-1-[3-(3-carboxypyridin-2-yl)thio-2-(indol-2-yl)carbonylamino]propionyl-4-diphenylmethylpiperazine]",0.013,0.0051,2745,14,0.0051
"O=C(N[C@@H](CSc1ncccc1C(=O)O)C(=O)N1CCC(C(c2ccccc2)c2ccccc2)CC1)c1cc2ccccc2[nH]1 [Compound 2-6, (R)-4-diphenylmethyl-1-[3-(3-carboxypyridin-2-yl)thio-2-(indol-2-yl)carbonylamino)propionylpiperidine]",0.06,0.0043,13256,57,0.0043
"COc1ccc2[nH]c(C(=O)N[C@@H](CSc3ncccc3C(=O)O)C(=O)N3CCN(C(c4ccccc4)c4ccccc4)CC3)cc2c1 [Compound 6-2, (R)-1-[3-(3-carboxypyridin-2-yl)thio-2-(5-methoxyindol-2-yl)carbonylamino]propionyl-4-diphenylmethylpiperazine]",0.052,0.043,419,18,–
"COc1ccc(C(c2ccc(OC)cc2)N2CCN(C(=O)[C@H](CSc3ncccc3C(=O)O)NC(=O)c3cc4ccccc4[nH]3)CC2)cc1 [Compound 7-4, (R)-4-bis(4-methoxyphenyl)methyl-1-[3-(3-carboxypyridin-2-yl)thio-2-(indol-2-yl)carbonylamino]propionylpiperazine]",–,0.8,76,61,–
"O=C(N[C@@H](CSc1ncccc1C(=O)O)C(=O)N1CCN(C(c2ccccn2)c2ccccn2)CC1)c1cc2ccccc2[nH]1 [Compound 8-5, (R)-4-bis(2-pyridyl)methyl-1-[3-(3-carboxypyridin-2-yl)thio-2-(indol-2-yl)carbonylamino]propionylpiperazine]",0.35,0.05,1140,57,–
"O=C(N[C@@H](CSc1ccccc1C(=O)O)C(=O)N1CCN(C(c2ccccc2)c2ccccc2)CC1)c1cc2ccccc2[nH]1 [Compound 9-3, (R)-1-[3-(2-carboxyphenyl)thio-2-(indol-2-yl)carbonylamino]propionyl-4-diphenylmethylpiperazine]",–,0.21,29,6,–
"O=C(N[C@@H](CSc1ncccc1C(=O)O)C(=O)N1CCN(C(c2ccc(F)cc2)c2ccc(F)cc2)CC1)c1cc2ccccc2[nH]1 [Compound 10-4, (R)-4-bis(4-fluorophenyl)methyl-1-[3-(3-carboxypyridin-2-yl)thio-2-(indol-2-yl)carbonylamino]propionylpiperazine]",0.048,0.006,6000,36,0.006
"O=C(N[C@@H](CSc1ncccc1C(=O)O)C(=O)N1CCN(C2c3ccccc3CCc3ccccc32)CC1)c1cc2ccccc2[nH]1 [Compound 19-5, (R)-1-[3-(3-carboxypyridin-2-yl)thio-2-(indol-2-yl)carbonylamino]propionyl-4-(10,11-dihydro-5H-dibenzo[a,d]cyclohepten-5-yl)piperazine]",–,0.009,7111,64,0.009
"O=C(N[C@@H](CSc1ncccc1C(=O)O)C(=O)N1CCC(C(c2ccccc2)c2ccccc2)CC1)c1cc2cc(Cl)ccc2[nH]1 [Compound 20-2, (R)-1-[3-(3-carboxypyridin-2-yl)thio-2-(5-chloroindol-2-yl)carbonylamino]propionyl-4-diphenylmethylpiperidine]",–,0.06,> 16667,> 1000,–
"COc1ccc2[nH]c(C(=O)N[C@@H](CSc3ncccc3C(=O)O)C(=O)N3CCC(C(c4ccccc4)c4ccccc4)CC3)cc2c1 [Compound 21-2, (R)-1-[3-(3-carboxypyridin-2-yl)thio-2-(5-methoxyindol-2-yl)carbonylamino]propionyl-4-diphenylmethylpiperidine]",–,0.013,130770,1700,–
"O=C(N[C@@H](CCCn1nnc(C(=O)O)c1C(=O)O)C(=O)N1CCN(C(c2ccccc2)c2ccccc2)CC1)c1cc2ccccc2[nH]1 [Compound 23-6, (S)-1-[5-(4,5-dicarboxy-1,2,3-triazol-1-yl)-2-(indol-2-yl)carbonylamino]valeryl-4-diphenylmethylpiperazine]",–,0.14,179,25,–
"O=C(N[C@@H](CCSc1ncccc1C(=O)O)C(=O)N1CCN(C(c2ccccc2)c2ccccc2)CC1)c1cc2ccccc2[nH]1 [Compound 25-7, (S)-1-[4-(3-carboxypyridin-2-yl)thio-2-(indol-2-yl)carbonylamino]butyryl-4-diphenylmethylpiperazine]",–,0.21,57,12,–
"O=C(N[C@@H](CCCn1nncc1C(=O)O)C(=O)N1CCN(C(c2ccccc2)c2ccccc2)CC1)c1cc2ccccc2[nH]1 [Compound 28-3, (S)-1-[5-(5-carboxy-1,2,3-triazol-1-yl)-2-(indol-2-yl)carbonylamino]valeryl-4-diphenylmethylpiperazine]",–,0.07,43,3,–
"O=C(O)c1cn(CCC[C@H](NC(=O)c2cc3ccccc3[nH]2)C(=O)N2CCN(C(c3ccccc3)c3ccccc3)CC2)nn1 [Compound 29-2, (S)-1-[5-(4-carboxy-1,2,3-triazol-1-yl)-2-(indol-2-yl)carboxyamino]valeryl-4-diphenylmethylpiperazine]",–,1.5,17,26,–
"O=C(N[C@@H](Cn1nnc(C(=O)O)c1C(=O)O)C(=O)N1CCN(C(c2ccccc2)c2ccccc2)CC1)c1cc2ccccc2[nH]1 [Compound 31-3, (S)-1-[3-(4,5-dicarboxy-1,2,3-triazol-1-yl)-2-(indol-2-yl)carbonylamino]propionyl-4-diphenylmethylpiperazine]",0.032,–,–,–,–
"O=C(N[C@@H](Cn1nncc1C(=O)O)C(=O)N1CCN(C(c2ccccc2)c2ccccc2)CC1)c1cc2ccccc2[nH]1 [Compound 32-2, (S)-4-diphenylmethyl-1-[3-(5-carboxy-1,2,3-triazol-1-yl)-2-(indol-2-yl)carbonylamino]propionylpiperazine]",0.036,–,–,–,–
